Results as given in paper PMC8746797, “Design, Synthesis, and Structure–Activity Relationship Study of Potent MAPK11 Inhibitors” (Molecules, 2021).
Where two headings read alike, the source gives them in different places.

How the values were obtained:
MAPK14 = details: cited from earlier work
MAPK11 = MAPK11 (Homo sapiens, UniProt Q15759); assay: Enzyme assay against MAPK11 (mobility shift assay); type: biochemical; details: for IC50: mobility shift assay, mean ± SD of at least two independent determinations, read-out: MAPK11 Enzyme Inhibitory Activity IC50
MAPK11, sequence (Q15759 whole entry): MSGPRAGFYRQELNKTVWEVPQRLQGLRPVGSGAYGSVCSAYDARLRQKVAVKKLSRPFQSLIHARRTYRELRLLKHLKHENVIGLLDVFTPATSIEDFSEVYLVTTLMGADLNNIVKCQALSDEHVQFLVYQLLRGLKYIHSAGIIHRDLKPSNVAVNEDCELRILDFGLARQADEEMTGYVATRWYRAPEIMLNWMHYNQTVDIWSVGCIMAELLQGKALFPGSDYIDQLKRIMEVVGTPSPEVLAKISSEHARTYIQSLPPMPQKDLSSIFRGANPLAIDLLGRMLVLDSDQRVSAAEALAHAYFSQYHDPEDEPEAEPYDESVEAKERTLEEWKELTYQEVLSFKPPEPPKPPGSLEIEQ
Procedure: The effect of the above synthesized inhibitors on MAPK11 kinase activity in vitro was assessed using mobility shift assay by ChemPartner. Following the kinase reaction, a part of the substrate was added to a phosphate group under the action of the kinase to yield a product. The substrate and the product have a difference of 3 charges, thereby allowing them to be separated and detected by capillary electrophoresis. […] Finally, the data was fitted to the XLFit Excel plug-in version 5.4.0.8 to calculate the IC50 value.

Structure (SMILES)	IC50 (MAPK11) [nM]	melting point [°C]	further results
O=C1c2ccc(Nc3ccc(F)cc3F)cc2CCc2ccc(OC[C@H](O)CO)cc21 [Compound 12a, reference compound]	19.2 ± 0.9		IC50 (MAPK14): 5 nM
Cc1cc(OC[C@H](O)CO)cc2c1CCc1cc(Nc3ccc(F)cc3F)ccc1C2=O [Compound 12b]	14.5 ± 0.3	135.1 to 135.8	
O=C1c2ccc(Nc3ccc(F)cc3F)cc2CCc2ccc(OC[C@@H](O)CO)cc21 [Compound 12c]	32 ± 0.6		
O=C1c2ccc(Nc3ccc(F)cc3F)cc2CCc2ccc(OCCCO)cc21 [Compound 12d]	25.9 ± 0.7		
Cc1cc(OCCCO)cc2c1CCc1cc(Nc3ccc(F)cc3F)ccc1C2=O [Compound 12e]	16.4 ± 0.6	127.2 to 127.7	
COC(=O)CCCOc1ccc2c(c1)C(=O)c1ccc(Nc3ccc(F)cc3F)cc1CC2 [Compound 12f]	61 ± 2.1	124.6 to 125	decrease in potency against MAPK11 relative to 13a (MAPK11; ester 12f vs carboxylic acid 13a): about 10 fold
O=C(O)CCCOc1ccc2c(c1)C(=O)c1ccc(Nc3ccc(F)cc3F)cc1CC2 [Compound 13a]	6.4 ± 0.6		fold more potent than 12a (skepinone-L) against MAPK11 (MAPK11; ratio of IC50 values vs 12a): 3 fold
Cc1cc(OCCCC(=O)O)cc2c1CCc1cc(Nc3ccc(F)cc3F)ccc1C2=O [Compound 13b, 4-((8-((2,4-difluorophenyl)amino)-1-methyl-5-oxo-10,11-dihydro-5H-dibenzo [a,d][7]annulen-3-yl)oxy)butanoic acid]	4.2 ± 0.1	120.4 to 120.6	
O=C1c2ccc(Nc3ccc(F)cc3F)cc2CCc2ccc(OC3CC(C(=O)O)C3)cc21 (stereo not drawn) [Compound 13c]	14.3 ± 0.6	145.3 to 145.9	
NC(=O)CCCOc1ccc2c(c1)C(=O)c1ccc(Nc3ccc(F)cc3F)cc1CC2 [Compound 14a]	8.4 ± 0.1		
O=S(=O)(c1ccc(Nc2ccc(F)cc2F)cc1)c1cccc(OC[C@H](O)CO)c1 [Compound 23b]	> 10000	135.9 to 136.6	
O=S(=O)(c1ccc(Nc2ccc(F)cc2F)cc1)c1cccc(OC[C@@H](O)CO)c1 [Compound 23c]	> 10000	136.3 to 136.7	
COC(=O)CCCOc1cccc(S(=O)(=O)c2ccc(Nc3ccc(F)cc3F)cc2)c1 [Compound 23d]		126.8 to 127.4	
O=C(O)CCCOc1cccc([S+]([O-])c2ccc(Nc3ccc(F)cc3F)cc2)c1 (stereo not drawn) [Compound 25]	2550 ± 682		decrease in potency against MAPK11 compared to dibenzocycloheptanone compounds (MAPK11): more than a hundred-fold decrease
O=C(O)CCCOc1cccc(S(=O)(=O)c2ccc(Nc3ccc(F)cc3F)cc2)c1 [Compound 26]	> 10000	132.6 to 133.1	
CC(C)(C)Cn1c(N)nc2ccc(-c3[nH]c(C(C)(C)C)nc3-c3ccc(F)cc3)nc21 [LY2228820]			IC50 (MAPK14; Figure 1): 5.3 nM
